Series [1] has as its system RAW264.7. The series is described as follows: Antiinflammatory activity against mouse RAW264.7 cells assessed as inhibition of LPS-induced NO production at 10 uM preincubated for 1 hrs followed by LPS stimulation and measured after 24 hrs by Griess assay relative to control. The format is functional. The note with it: time 25 hrs.
Series [2] has as its system L02. The series is described as follows: Antiinflammatory activity against human L02 assessed as inhibition of LPS-induced NO production preincubated for 1 hrs followed by LPS stimulation and measured after 24 hrs by Griess assay relative to control. The format is functional, cell-based. (Griess reagent forms a coloured azo dye with nitrite.)
Series [3] deals with RAW264.7. The series is described as follows: Inhibition of LPS-induced NO release in mouse RAW264.7 cells preincubated for 1 hrs followed by LPS stimulation and measured after 24 hrs by Griess reagent based assay. The format is functional, cell-based.
In series [4] the target is T1, Nitric oxide synthase, inducible (Mus musculus, UniProt P29477).
T1 sequence (P29477 whole entry): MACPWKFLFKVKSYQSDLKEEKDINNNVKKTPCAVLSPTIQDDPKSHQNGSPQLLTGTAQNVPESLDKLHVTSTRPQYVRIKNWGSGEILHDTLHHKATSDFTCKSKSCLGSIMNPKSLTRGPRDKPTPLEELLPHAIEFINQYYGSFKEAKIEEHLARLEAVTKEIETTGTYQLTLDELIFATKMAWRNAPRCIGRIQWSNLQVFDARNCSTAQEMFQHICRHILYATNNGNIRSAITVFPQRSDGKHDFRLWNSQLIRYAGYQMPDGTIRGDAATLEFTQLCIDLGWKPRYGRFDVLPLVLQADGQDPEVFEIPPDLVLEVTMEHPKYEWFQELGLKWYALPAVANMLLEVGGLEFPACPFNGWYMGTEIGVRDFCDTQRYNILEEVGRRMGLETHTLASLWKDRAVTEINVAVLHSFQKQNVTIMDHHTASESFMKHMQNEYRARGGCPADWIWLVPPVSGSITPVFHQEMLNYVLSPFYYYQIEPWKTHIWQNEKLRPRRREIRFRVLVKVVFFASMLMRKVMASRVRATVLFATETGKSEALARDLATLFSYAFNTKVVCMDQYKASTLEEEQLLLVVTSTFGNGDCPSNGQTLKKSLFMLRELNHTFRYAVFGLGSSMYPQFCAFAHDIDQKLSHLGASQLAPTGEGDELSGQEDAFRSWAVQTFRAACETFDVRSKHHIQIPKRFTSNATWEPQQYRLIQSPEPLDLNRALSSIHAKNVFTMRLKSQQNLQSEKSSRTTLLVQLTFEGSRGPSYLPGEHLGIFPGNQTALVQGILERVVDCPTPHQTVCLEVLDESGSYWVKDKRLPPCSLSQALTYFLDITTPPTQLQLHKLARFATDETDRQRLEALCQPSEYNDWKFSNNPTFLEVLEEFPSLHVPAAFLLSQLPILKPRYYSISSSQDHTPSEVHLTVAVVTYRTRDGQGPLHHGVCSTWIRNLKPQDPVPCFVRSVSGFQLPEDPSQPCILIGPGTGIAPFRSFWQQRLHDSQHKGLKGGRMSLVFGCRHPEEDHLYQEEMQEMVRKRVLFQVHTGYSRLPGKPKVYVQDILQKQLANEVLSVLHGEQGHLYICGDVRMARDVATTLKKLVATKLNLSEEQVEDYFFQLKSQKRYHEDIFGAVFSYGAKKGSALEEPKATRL
The series is described as follows: Inhibition of LPS induced NO-dependent iNOS activity in mouse RAW 264.7 cells preincubated for 1 hrs followed by LPS stimulation and measured after 24 hrs by Griess reagent based assay. The series is classed as cell-based, RAW264.7.

The subject of series [5] is RAW264.7. Nature of the series: Cytotoxicity against LPS-induced mouse RAW 264.7 cells assessed as cell viability measured by MTT assay. The series is classed as cell-based. In general terms: Formazan colour is commonly taken as a measure of viable cells.
Series [6] relates to RAW264.7. Nature of the series: Cytotoxicity against mouse RAW 264.7 cells assessed as cell viability by MTT assay. The format is cell-based.
Series [7] concerns L02. Nature of the series: Cytotoxicity against human L02 cells assessed as cell viability by MTT assay. The format is cell-based.
For series [8], the system named is RAW264.7. The series is described as follows: Cytotoxicity against mouse RAW264.7 cells at 20 uM measured after 24 hrs. The format is cell-based. The note with it: raw264.7, 24 h.
The nature of series [9]: Metabolic stability in human hepatocytes assessed as half life measured upto 120 mins by LC-MS/MS analysis. The format is ADME, cell-based, Hepatocyte.
The nature of series [10]: Metabolic stability in human hepatocytes assessed as clearance incubated up to 120 mins measured per million cells by LC-MS/MS analysis. The format is ADME, cell-based, Hepatocyte. The following applies: read-out: CLH.
Series [11] can be described thus: Metabolic stability in rat hepatocytes assessed as half life measured upto 120 mins by LC-MS/MS analysis. The series is classed as ADME, cell-based, Hepatocyte.
Series [12] can be described thus: Metabolic stability in rat hepatocytes assessed as intrinsic clearance incubated up to 120 mins measured per million cells by LC-MS/MS analysis. The series is classed as ADME, cell-based, Hepatocyte. The note with it: read-out: CLH.
The next series deals with T2, Cytochrome P450 1A2 (Homo sapiens, UniProt P05177).
T2 sequence (P05177 whole entry): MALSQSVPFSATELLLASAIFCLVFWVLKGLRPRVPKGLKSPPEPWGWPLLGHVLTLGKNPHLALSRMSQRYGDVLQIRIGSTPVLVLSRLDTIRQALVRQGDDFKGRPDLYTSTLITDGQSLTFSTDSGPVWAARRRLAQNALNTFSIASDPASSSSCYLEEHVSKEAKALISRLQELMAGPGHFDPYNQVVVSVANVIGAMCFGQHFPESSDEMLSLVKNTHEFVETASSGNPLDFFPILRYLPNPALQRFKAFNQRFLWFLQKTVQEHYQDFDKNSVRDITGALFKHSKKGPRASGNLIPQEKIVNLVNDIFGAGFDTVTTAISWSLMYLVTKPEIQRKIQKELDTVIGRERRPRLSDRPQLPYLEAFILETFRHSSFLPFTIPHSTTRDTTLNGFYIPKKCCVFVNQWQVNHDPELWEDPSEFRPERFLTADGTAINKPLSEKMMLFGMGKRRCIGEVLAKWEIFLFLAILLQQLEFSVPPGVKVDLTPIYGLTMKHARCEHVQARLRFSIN
Nature of the series: Inhibition of CYP1A2 in human liver microsomes using Phenacetin as substrate measured after 20 mins by LC-MS/MS analysis. The format is ADME. Background: Liver microsomes are a subcellular fraction often used to study metabolism.

On to `COc1cc(/C=C/c2nc(NCc3ccncc3)c3sccc3n2)cc(OC)c1OC`, for which the inhibition (usually the relative decrease from the control value, in per cent) at 10 µM in the series with RAW264.7 [1] was determined as 76%. In addition, the IC50 – broadly, the concentration that inhibits the measured activity by half – in the series with L02 [2] was 0.374 mM; with RAW264.7 [3], 6.35 µM; in [4], 3.12 µM; in the series with RAW264.7 [5], above 50 µM; with RAW264.7 [6], above 50 µM; with L02 [7], 0.374 mM. In the series on RAW264.7 [8], the Activity result is recorded as “Non-Toxic”.

Consider `COc1ccc(Nc2nc(/C=C/c3cc(OC)c(OC)c(OC)c3)nc3ccsc23)cc1`, for which, in the series on RAW264.7 [1], the inhibition at 10 µM was 52.5%. The IC50 with L02 [2] is 0.279 mM; with RAW264.7 [3], 10.7 µM; in series [4] it was 5.12 µM; with RAW264.7 [5], above 50 µM; in the series with RAW264.7 [6] it was above 50 µM; with L02 [7], 0.279 mM. Further, the Activity result in the series with RAW264.7 [8] was “Non-Toxic”.

In the case of `Cc1ncc2n1-c1ccc(Cl)cc1C(c1ccccc1F)=NC2` [MIDAZOLAM], the results for the half-life in series [9] and in series [11] were 16.3 min and 3.9 min, respectively. For the same molecule, the hepatocyte CLint in [10] was 42.6 µL/min/1e6 cells; in series [12], 176 µL/min/1e6 cells.

Consider `COc1cc(/C=C/c2nc(NC3CC3)c3sccc3n2)cc(OC)c1OC`, for which the inhibition at 10 µM with RAW264.7 [1] was found to be 90.7%. The IC50 with L02 [2] is above 1 mM; in the series with RAW264.7 [3], 6.03 µM; in [4], 4.32 µM; in the series on RAW264.7 [5], above 50 µM; in the series on RAW264.7 [6], above 50 µM; in the series on L02 [7] it was 2.36 mM. Further, the Activity result in the series on RAW264.7 [8] is recorded as “Non-Toxic”.

As for `C[C@@H]1C[C@H]2[C@@H]3CCC4=CC(=O)C=C[C@]4(C)[C@@]3(F)[C@@H](O)C[C@]2(C)[C@@]1(O)C(=O)CO` [DEXAMETHASONE], in the series with RAW264.7 [1], the inhibition at 10 µM is 51.8%. The half-maximal inhibitory concentration (IC50) with L02 [2] is 4.62 mM; with RAW264.7 [3], 8.71 µM; in series [4], above 10 µM; with RAW264.7 [5], above 50 µM; in the series on RAW264.7 [6] it was above 50 µM; in the series with L02 [7] it was 4.62 mM.

As to `CCOc1ccc(NC(C)=O)cc1` [PHENACETIN], the half-life (usually the time in which the quantity being followed falls by half) in series [9] came out at 43.8 min; in series [11], 32.6 min. Further, the figures for the hepatocyte CLint in [10] and in series [12] were 15.8 µL/min/1e6 cells and 21.3 µL/min/1e6 cells, respectively.

For `COc1ccc2c(c1)[C@]13CCCC[C@@H]1[C@H](C2)N(C)CC3` [DEXTROMETHORPHAN], the results for the half-life in [9] and in series [11] were 14.5 min and 4.6 min, respectively. The figures for the hepatocyte CLint in [10] and in [12] were 47.8 µL/min/1e6 cells and 150 µL/min/1e6 cells, respectively.

On to `COc1ccc(CNc2nc(/C=C/c3cc(OC)c(OC)c(OC)c3)nc3ccsc23)cc1`, for which, in the series on RAW264.7 [1], the inhibition at 10 µM worked out at 73.7%. In addition, the IC50 with L02 [2] was above 1 mM; in the series with RAW264.7 [3] it was 7.54 µM; in series [4], 3.26 µM; with RAW264.7 [5], above 50 µM; with RAW264.7 [6], above 50 µM; with L02 [7], 2.05 mM. Further, the Activity result in the series with RAW264.7 [8] was “Non-Toxic”.

Regarding `COc1ccc2[nH]c([S+]([O-])Cc3ncc(C)c(OC)c3C)nc2c1` (configuration not stated) [OMEPRAZOLE], the half-life in series [9] came out at 28.2 min; in [11], 13.5 min. For the same molecule, the figures for the hepatocyte CLint in series [10] and in [12] were 24.6 µL/min/1e6 cells and 51.4 µL/min/1e6 cells, respectively.

`COc1cc(/C=C/c2nc(Nc3ccc(O)cc3)c3sccc3n2)cc(OC)c1OC`: the inhibition at 10 µM in the series on RAW264.7 [1] worked out at 97.7%. Moreover, the IC50 in the series with L02 [2] is above 1 mM; in the series with RAW264.7 [3] it was 4.07 µM; in [4], 1.89 µM; in the series with RAW264.7 [5] it was above 50 µM; in the series with RAW264.7 [6], above 50 µM; in the series with L02 [7], 2.3 mM. Also, the Activity entry with RAW264.7 [8] is given as “Non-Toxic”.

As for `O=c1cc(-c2ccccc2)oc2ccc3ccccc3c12` [BETA-NAPHTHOFLAVONE], at Cytochrome P450 1A2, the IC50 came out at 83.5 nM.

For the molecule `O=C(O)Cc1ccccc1Nc1c(Cl)cccc1Cl` [DICLOFENAC], the results for the half-life in [9] and in series [11] were 9.1 min and 13.6 min, respectively. Also, the hepatocyte CLint was found to be 75.8 µL/min/1e6 cells in [10] and 50.3 µL/min/1e6 cells in series [12].

With `COc1cc(/C=C/c2nc(NCc3ccc(Cl)cc3)c3sccc3n2)cc(OC)c1OC`, the inhibition at 10 µM with RAW264.7 [1] turned out to be 65.5%. Besides, the IC50 in the series on L02 [2] is above 1 mM; in the series with RAW264.7 [3], 9.05 µM; in [4] it was 4.23 µM; in the series with RAW264.7 [5] it was above 50 µM; in the series with RAW264.7 [6], above 50 µM; in the series with L02 [7], 4.32 mM. For the same molecule, in the series on RAW264.7 [8], the Activity result is recorded as “Non-Toxic”.

As for `COc1cc(/C=C/c2nc(Nc3ccc(C(F)(F)F)cc3)c3sccc3n2)cc(OC)c1OC`, in the series with RAW264.7 [1], the inhibition at 10 µM was 55.4%. Further, the IC50 was 0.436 mM in the series on L02 [2]; 9.36 µM in the series on RAW264.7 [3]; 4.2 µM in series [4]; above 50 µM in the series on RAW264.7 [5]; above 50 µM in the series with RAW264.7 [6]; 0.436 mM in the series with L02 [7]. Further, the Activity result in the series with RAW264.7 [8] is recorded as “Non-Toxic”.

Turning to `COc1cc(/C=C/c2nc(NCc3ccccc3)c3sccc3n2)cc(OC)c1OC`, the inhibition at 10 µM in the series with RAW264.7 [1] stood at 71.9%. The IC50 is above 1 mM in the series with L02 [2]; 8.26 µM in the series with RAW264.7 [3]; 3.62 µM in series [4]; above 50 µM in the series on RAW264.7 [5]; above 50 µM in the series on RAW264.7 [6]; 1.8 mM with L02 [7]. In the series with RAW264.7 [8], the Activity entry is listed as “Non-Toxic”.
